For this assay, the target named is Human immunodeficiency virus type 1 reverse transcriptase (Human immunodeficiency virus 1, UniProt Q72547). Nature of the assay: Inhibitory activity against HIV-1 reverse transcriptase.
A word on the IC50: it is the concentration at which inhibition is half-maximal. Read a high IC50 as a need for much substance. Turning to `Cc1cn(C2CC(N=[N+]=[N-])C(COP(=O)(O)CP(=O)(O)CP(=O)(O)O)O2)c(=O)[nH]c1=O` (stereo not drawn), half-maximal inhibition (IC50) required 48 µM.

In turn, `Cc1cn(C2CC(N=[N+]=[N-])C(COP(=O)(O)CCCP(=O)(O)O)O2)c(=O)[nH]c1=O` (stereo not drawn) returned a half-inhibitory concentration (IC50) of 39 µM. The IC50 values of the last two compounds are within 1.5-fold of each other.

`Cc1cn([C@H]2C[C@H](N=[N+]=[N-])[C@@H](CO[P@](=O)(O)O[P@](=O)(O)OP(=O)(O)O)O2)c(=O)[nH]c1=O` [ZIDOVUDINE TRIPHOSPHATE] came in with an IC50 of 0.043 µM.

The values above are taken from ChEMBL document CHEMBL1150514, “Synthesis and HIV-1 reverse transcriptase inhibition properties of two new methylenephosphonate analogues of 3-azido-3-deoxythymidine-5-triphosphate” (Bioorg Med Chem Lett, 1995).
